Measured values: BigSolDB 2.1

Conditions: in water

SMILES	solubility (mole fraction) (285.15 K)	solubility (mole fraction) (292.15 K)	solubility (mole fraction) (298.15 K)	solubility (mole fraction) (306.15 K)	solubility (mole fraction) (313.15 K)	solubility (mole fraction) (320.15 K)	solubility (mole fraction) (327.15 K)	solubility (mole fraction) (333.15 K)	solubility (mole fraction) (339.15 K)	solubility (mole fraction) (344.15 K)	solubility (mole fraction) (348.15 K)
O=C(O)c1ccc([N+](=O)[O-])cc1C(=O)O	0.087	0.103	0.117	0.137	0.153	0.172	0.188	0.2	0.211	0.218	0.222
O=C(O)c1cccc([N+](=O)[O-])c1C(=O)O	0.000774	0.000984	0.00141	0.00189	0.0026	0.00352	0.00467	0.00581	0.00713	0.00847	0.00955
